Results published in patent US10183947B2, “Pyrazole derivatives useful as 5-lipoxygenase activating protein (FLAP) inhibitors” (ASTRAZENECA AB, priority 2015, dated 2019).
Where two headings read alike, the source gives them in different places.

Experiments:
[1] = molecular target: FLAP (human ALOX5AP expressed in COS-7 cell membranes) (Homo sapiens (Human), UniProt P20292); assay: FLAP Binding Assay (Test A), competition binding with 3H-MK591 as tracer; details: competition with 3H-MK591 (2 nM), membranes from COS-7 cells expressing human ALOX5AP, 60 min at rt
Description: FLAP Binding Assay (Test A) Compounds were tested in a competition binding assay using ^3H-MK591 as tracer. […] Med. Chem. […] A 100,000×g pellet from COS-7 cells stably transfected with a plasmid expressing human ALOX5AP was the source of FLAP. […] Following filtration, filter plates were dried 12 h at RT (or 50° C. for 1 hour). 50 μL scintillant was then added, the filterplates were sealed and radioactivity was measured in a microbeta counter. Specific binding was defined as total binding minus non-specific binding. Total binding was defined as ^3H-MK591 bound to membranes in the absence of competitor, non-specific binding was defined as ^3H-MK591 in the presence of 0.1 mM MK-591. IC50 values were determined by plotting % inhibition versus log compound concentration and using a one site dose response model.

[2] = test system: LTB4 production in fresh human whole blood; assay: FLAP Whole Blood Assay (Test B), inhibition of LTB4 production; assay type: cell-based; details: then calcium ionophore A23187, LTB4 by EIA
Description: FLAP Whole Blood Assay (Test B)
Compounds were tested for the inhibition of LTB4 production in fresh human whole blood obtained by venapuncture using heparin to prevent clotting. 1.5 μL compounds or DMSO carrier were dispensed into the wells of a 96-well deep-well plate in 3-fold dilution series. 500 μL hepamised whole blood was then added followed by incubation at 37° C. for 30 min (method A) or 4 h (method B). 100 μL blood was subsequently transferred in triplicate to pre-dispensed 0.5 μL 2 mM calcium ionophore (calcimycin; A23187) in a second 96-well plate. Following incubation at 37° C. for 20 min, the assays were stopped by adding 10 μL of stop solution (100 mM EGTA, pH 7.4) and the plate was transferred to ice. The plate was centrifuged at 3000 rpm at 4° C. for 10 min and […] was transferred to a fresh 96 well plate containing 90 μL pre-dispensed EIA assay buffer (0.1 M phosphate buffer+0.1% BSA). LTB4 was then measured using reagents from a commercial EIA (Cayman Chemicals). LTB4 production was defined as the LTB4 level in the presence of a given concentration of test compound minus the LTB4 level in the presence of 50 nM 5-[[4-[(2S,4R)-4-hydroxy-2-methyl-tetrahydropyran-4-yl]-2-thienyl]sulfanyl]-1-methyl-indolin-2-one. (Preparation of 5-[[4-[(2S,4R)-4-hydroxy-2-methyl-tetrahydropyran-4-yl]-2-thienyl]sulfanyl]-1-methyl-indolin-2-one was described in Org. Process Res. Dev., 2005, 9, 555-569 or EP623614 B1). Inhibition of LTB4 production was defined as the LTB4 level in the presence of a given concentration of test compound expressed as a % of the LTB4 level in the presence of DMSO. IC50 values were determined by plotting % inhibition versus log compound concentration and using a one site dose response model.

[3] = method B: compound incubated with human whole blood at 37° C. for 4 h, read-out: IC50 nM (method B)
[4] = 0.5 h, method A: compound incubated with human whole blood at 37° C. for 30 min, read-out: IC50 nM (method A)

Sequence of FLAP (human ALOX5AP expressed in COS-7 cell membranes) (P20292 whole entry): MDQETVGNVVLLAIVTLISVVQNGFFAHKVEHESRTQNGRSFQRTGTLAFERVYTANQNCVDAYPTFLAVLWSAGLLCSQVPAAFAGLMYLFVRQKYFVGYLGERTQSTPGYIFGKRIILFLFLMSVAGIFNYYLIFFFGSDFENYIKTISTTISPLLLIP

IC50 [1] | IC50 [2, 3] | IC50 [2, 4] | SMILES
0.29 µM | 250 nM | – | Cn1cc(NC(=O)[C@@H]2CCCC[C@H]2C(=O)c2ccc(-c3ccn[nH]3)cc2)c(S(N)(=O)=O)n1 [Example 26, (1R,2R)—N-(1-Methyl-3-sulfamoyl-1H-pyrazol-4-yl)-2-[4-(1H-pyrazol-5-yl)benzoyl]cyclohexanecarboxamide]
0.4 µM | – | 654 nM | COc1c(NC(=O)C2CCCCC2C(=O)c2ccc(-c3cc[nH]n3)cc2)cnn1C (racemic) [Example 14, (1R,2R and 1S,2S)—N-(5-Methoxy-1-methyl-1H-pyrazol-4-yl)-2-[4-(1H-pyrazol-3-yl)benzoyl]cyclohexanecarboxamide]
0.046 µM | – | 197 nM | Cc1cc(NC(=O)C2CCCCC2C(=O)c2ccc(-c3ccn[nH]3)cc2)on1 (racemic) [Example 44, (1R,2R and 1S,2S)—N-(3-Methyl-1,2-oxazol-5-yl)-2-[4-(1H-pyrazol-5-yl)benzoyl]cyclohexanecarboxamide]
0.024 µM | 740 nM | – | Cc1cc(-c2ccc(C(=O)[C@@H]3CCCC[C@H]3C(=O)Nc3c(C(N)=O)n[nH]c3C)cc2)[nH]n1 [Example 22, 5-Methyl-4-[({(1R,2R)-2-[4-(3-methyl-1H-pyrazol-5-yl)benzoyl]-cyclohexyl}carbonyl)amino]-1H-pyrazole-3-carboxamide]
0.086 µM | – | 170 nM | Cc1cc(-c2ccc(C(=O)C3CCCCC3C(=O)Nc3cnn(C)c3C#N)cc2)[nH]n1 (racemic) [Example 46, (1R,2R and 1S,2S)—N-(5-Cyano-1-methyl-1H-pyrazol-4-yl)-2-[4-(3-methyl-1H-pyrazol-5-yl)benzoyl]cyclohexanecarboxamide]
0.0081 µM | 18 nM | – | O=C1NCCn2ncc(NC(=O)[C@@H]3CCCC[C@H]3C(=O)c3ccc(-c4ccn[nH]4)cc3)c21 [Example 24, (1R,2R)—N-(4-Oxo-4,5,6,7-tetrahydropyrazolo[1,5-a]pyrazin-3-yl)-2-[4-(1H-pyrazol-5-yl)benzoyl]cyclohexanecarboxamide]
0.073 µM | – | 112 nM | Cn1cc(NC(=O)C2CCCCC2C(=O)c2ccc(-c3cc[nH]n3)cc2)c(C(N)=O)n1 (single isomer, unassigned) [Example 1, 1-Methyl-4-[({(1R,2R or 1S,2S)-2-[4-(1H-pyrazol-3-yl)benzoyl]-cyclohexyl}carbonyl)amino]-1H-pyrazole-3-carboxamide]
0.07 µM | – | 208 nM | Cc1cc(-c2ccc(C(=O)C3CCCCC3C(=O)Nc3nonc3C(N)=O)c(F)c2)[nH]n1 (single isomer, unassigned) [Example 40, 4-[({(1R,2R or 1S,2S)-2-[2-Fluoro-4-(3-methyl-1H-pyrazol-5-yl)benzoyl]cyclohexyl}carbonyl)amino]-1,2,5-oxadiazole-3-carboxamide]
0.0039 µM | 380 nM | – | Cc1cc(-c2ccc(C(=O)[C@@H]3CCCC[C@H]3C(=O)Nc3c(C)nn4c3C(=O)NCC4)cc2)n[nH]1 [Example 28, (1R,2R)—N-(2-Methyl-4-oxo-4,5,6,7-tetrahydropyrazolo[1,5-a]pyrazin-3-yl)-2-[4-(5-methyl-1H-pyrazol-3-yl)benzoyl]cyclohexanecarboxamide]
0.044 µM | – | 640 nM | Cc1nsc(NC(=O)C2CCCCC2C(=O)c2ccc(-c3ccn[nH]3)cc2)c1C#N (racemic) [Example 49, (1R,2R and 1S,1S)—N-(4-Cyano-3-methyl-1,2-thiazol-5-yl)-2-[4-(1H-pyrazol-5-yl)benzoyl]cyclohexanecarboxamide]
0.0086 µM | 28 nM | – | Cc1cc(-c2ccc(C(=O)[C@@H]3CCCC[C@H]3C(=O)Nc3cn[nH]c3C(F)F)cc2)n[nH]1 [Example 15, (1R,2R)—N-[5-(Difluoromethyl)-1H-pyrazol-4-yl]-2-[4-(5-methyl-1H-pyrazol-3-yl)benzoyl]cyclohexanecarboxamide]
0.022 µM | 41 nM | – | Cc1cc(-c2ccc(C(=O)[C@@H]3CCCC[C@H]3C(=O)Nc3cnn4c3C(=O)N(C)CC4)cc2)n[nH]1 [Example 16, (1R,2R)—N-(5-Methyl-4-oxo-4,5,6,7-tetrahydropyrazolo[1,5-a]pyrazin-3-yl)-2-[4-(5-methyl-1H-pyrazol-3-yl)benzoyl]cyclohexanecarboxamide]
0.023 µM | – | 270 nM | Cc1cc(NC(=O)C2CCCCC2C(=O)c2ccc(-c3ccn[nH]3)cc2)sn1 (racemic) [Example 48, (1R,2R and 1S,2S)—N-(3-Methyl-1,2-thiazol-5-yl)-2-[4-(1H-pyrazol-5-yl)benzoyl]cyclohexanecarboxamide]

The remaining lines, values behind:

SMILES | IC50 [1] | IC50 [2, 3] | IC50 [2, 4]
Cc1onc(NC(=O)C2CCCCC2C(=O)c2ccc(-c3ccn[nH]3)cc2F)c1C(N)=O (single isomer, unassigned) [Example 41, 3-[({(1R,2R or 1S,2S)-2-[2-Fluoro-4-(1H-pyrazol-5-yl)benzoyl]-cyclohexyl}carbonyl)amino]-5-methyl-1,2-oxazole-4-carboxamide] | 0.16 µM | 272 nM | –
Cc1cc(-c2ccc(C(=O)[C@@H]3CCCC[C@H]3C(=O)Nc3nnco3)cc2)[nH]n1 [Example 43, (1R,2R)-2-[4-(3-Methyl-1H-pyrazol-5-yl)benzoyl]-N-(1,3,4-oxadiazol-2-yl)cyclohexanecarboxamide] | 0.14 µM | 904 nM | –
CNS(=O)(=O)c1c(NC(=O)[C@@H]2CCCC[C@H]2C(=O)c2ccc(-c3cc(C)n[nH]3)cc2)cnn1C [Example 25, (1R,2R)—N-[1-Methyl-5-(methylsulfamoyl)-1H-pyrazol-4-yl]-2-[4-(3-methyl-1H-pyrazol-5-yl)benzoyl]cyclohexanecarboxamide] | 0.025 µM | 210 nM | –
Cc1cc(-c2ccc(C(=O)C3CCCCC3C(=O)Nc3cnn(C)c3C(N)=O)c(F)c2)[nH]n1 (single isomer, unassigned) [Example 37, 4-[({(1R,2R or 1S,2S)-2-[2-Fluoro-4-(3-methyl-1H-pyrazol-5-yl)benzoyl]-cyclohexyl}carbonyl)amino]-1-methyl-1H-pyrazole-5-carboxamide] | 0.027 µM | 40 nM | –
Cc1cc(-c2ccc(C(=O)[C@@H]3CCCC[C@H]3C(=O)Nc3cnn4c3OCC4)cc2)[nH]n1 [Example 11, (1R,2R)—N-(2,3-Dihydropyrazolo[5,1-b][1,3]oxazol-7-yl)-2-[4-(3-methyl-1H-pyrazol-5-yl)benzoyl]cyclohexanecarboxamide] | 0.082 µM | 140 nM | –
Cn1cc(NC(=O)C2CCCCC2C(=O)c2ccc(-c3cc[nH]n3)cc2)c(C#N)n1 (single isomer, unassigned) [Example 12, (1R,2R or 1S,2S)—N-(3-Cyano-1-methyl-1H-pyrazol-4-yl)-2-[4-(1H-pyrazol-3-yl)benzoyl]cyclohexanecarboxamide] | 0.041 µM | 100 nM | –
Cn1ncc(NC(=O)C2CCCCC2C(=O)c2ccc(-c3ccn[nH]3)cc2Cl)c1C(N)=O (racemic) [Example 31, 4-[({(1R,2R and 1S,2S)-2-[2-Chloro-4-(1H-pyrazol-5-yl)benzoyl]-cyclohexyl}carbonyl)amino]-1-methyl-1H-pyrazole-5-carboxamide] | 0.19 µM | 390 nM | –
O=C(Nc1nc(C2CC2)ns1)C1CCCCC1C(=O)c1ccc(-c2ccn[nH]2)cc1 (racemic) [Example 47, (1R,2R and 1S,2S)—N-(3-Cyclopropyl-1,2,4-thiadiazol-5-yl)-2-[4-(1H-pyrazol-5-yl)benzoyl]cyclohexanecarboxamide] | 0.053 µM | – | 260 nM
Cc1nn2c(c1NC(=O)[C@@H]1CCCC[C@H]1C(=O)c1ccc(-c3cc[nH]n3)cc1)C(=O)NCC2 [Example 29, (1R,2R)—N-(2-Methyl-4-oxo-4,5,6,7-tetrahydropyrazolo[1,5-a]pyrazin-3-yl)-2-[4-(1H-pyrazol-5-yl)benzoyl]cyclohexanecarboxamide] | 0.0048 µM | 330 nM | –
CCn1cc(NC(=O)C2CCCCC2C(=O)c2ccc(-c3ccn[nH]3)cc2)c(C(N)=O)n1 (racemic) [Example 42, 1-Ethyl-4-[({(1R,2R and 1S,2S)-2-[4-(1H-pyrazol-5-yl)benzoyl]-cyclohexyl}carbonyl)amino]-1H-pyrazole-3-carboxamide] | 0.2 µM | – | 149 nM
